Measurements from patent US8785404B2, “Urea compounds” (Eli Lilly and Company, priority 2012, dated 2014).

Legend:
[1] = biological target: T1, human SGLT1 (Homo sapiens, UniProt P13866); assay: 14C-AMG uptake assay, human SGLT1 in CHO-K1 cells; assay type: cell-based
T1 sequence (P13866 1-664): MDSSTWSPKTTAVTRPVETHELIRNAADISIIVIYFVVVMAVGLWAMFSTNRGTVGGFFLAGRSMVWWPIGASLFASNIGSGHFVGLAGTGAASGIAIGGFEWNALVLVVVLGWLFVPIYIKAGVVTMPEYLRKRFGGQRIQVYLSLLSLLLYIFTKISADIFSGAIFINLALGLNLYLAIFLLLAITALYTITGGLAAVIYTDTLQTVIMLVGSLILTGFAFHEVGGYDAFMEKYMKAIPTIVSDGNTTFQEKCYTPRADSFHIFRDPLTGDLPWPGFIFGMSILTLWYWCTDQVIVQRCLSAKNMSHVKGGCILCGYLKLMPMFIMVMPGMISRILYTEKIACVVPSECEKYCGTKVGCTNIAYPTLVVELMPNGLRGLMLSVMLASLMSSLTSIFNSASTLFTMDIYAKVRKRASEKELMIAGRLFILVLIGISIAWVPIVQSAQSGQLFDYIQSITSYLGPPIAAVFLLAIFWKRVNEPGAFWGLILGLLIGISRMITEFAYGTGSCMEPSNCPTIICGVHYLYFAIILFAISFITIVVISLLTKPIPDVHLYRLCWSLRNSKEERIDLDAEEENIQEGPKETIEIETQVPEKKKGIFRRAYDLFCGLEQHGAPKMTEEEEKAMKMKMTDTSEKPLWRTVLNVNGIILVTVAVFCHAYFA
Source text: (§1) The cDNA encoding human SGLT1 (slc5a1, NM_000343), human SGLT2 (slc5a2, NM_003041) and mouse SGLT1 (slc5a1, NM_019810.4) are purchased from Openbiosystems, Invitrogen and Openbiosystems, respectively. The cDNA is cloned into pcDNA3.1+ for mammalian expression and is stably transfected into Chinese hamster ovary (CHO)-K1 cells using standard mammalian transfection procedures. An SGLT-expressing sub-clone of each over-expressing cell line is selected based on resistance to neomycin (Geneticin, Invitrogen) and activity in the ^14C-α-methyl-D-glucopyranoside (^14C-AMG) uptake assay (see below). Stable SGLT-expressing cells are maintained using standard cell culture techniques.
(§2) The SGLT activity is measured as sodium-dependent ^14C-AMG uptake in the above cell lines described as follows. One hundred μL of culture medium containing 30,000 cells are seeded to each well of a 96-well BioCoat poly-D-lysine plate (Becton Dickson) and cultured at 37° C. overnight. The culture medium is aspirated and cells are washed twice with 200 μL of Reaction Buffer (140 mM NaCl, 2 mM KCl, 1 mM CaCl2, MgCl2, and 14 mM N-2-hydroethylpiperrazine-N′-2-ethanesulfonic acid (Hepes), pH 7.5). The excess buffer is tapped out onto paper towels. Thirty-five μL of Reaction Buffer are added to each well. […] After mixing, the scintillation signal in the plate is counted in a MicroBeta (PerkinElmer). […]

[2] = biological target: T2, human SGLT2 (Homo sapiens, UniProt P31639); assay: 14C-AMG uptake assay, human SGLT2 in CHO-K1 cells; assay type: cell-based; conditions: sodium-dependent 14C-AMG uptake, n = 5
T2 sequence (P31639 1-672): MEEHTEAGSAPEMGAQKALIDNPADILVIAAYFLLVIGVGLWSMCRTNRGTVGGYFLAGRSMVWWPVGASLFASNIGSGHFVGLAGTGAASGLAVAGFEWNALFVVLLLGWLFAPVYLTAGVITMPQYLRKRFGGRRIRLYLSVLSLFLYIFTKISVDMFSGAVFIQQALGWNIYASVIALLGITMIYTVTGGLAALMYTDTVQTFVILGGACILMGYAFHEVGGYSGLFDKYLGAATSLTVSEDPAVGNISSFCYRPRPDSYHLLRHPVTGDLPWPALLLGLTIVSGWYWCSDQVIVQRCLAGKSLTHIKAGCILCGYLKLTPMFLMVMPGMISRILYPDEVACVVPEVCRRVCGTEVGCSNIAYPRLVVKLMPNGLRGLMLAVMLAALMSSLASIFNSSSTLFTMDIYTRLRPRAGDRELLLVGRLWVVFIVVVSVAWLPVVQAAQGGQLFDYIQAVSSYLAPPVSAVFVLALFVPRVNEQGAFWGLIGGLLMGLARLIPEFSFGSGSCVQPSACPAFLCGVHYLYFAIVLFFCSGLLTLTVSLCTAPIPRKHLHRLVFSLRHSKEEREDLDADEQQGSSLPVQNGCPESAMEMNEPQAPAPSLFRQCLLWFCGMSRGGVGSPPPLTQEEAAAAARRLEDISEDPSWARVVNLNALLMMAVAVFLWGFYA
Source text: as §1, §2

[3] = biological target: T3, mouse SGLT1 (Mus musculus, UniProt Q8C3K6); assay: 14C-AMG uptake assay, mouse SGLT1 in CHO-K1 cells; assay type: cell-based; conditions: sodium-dependent 14C-AMG uptake, n = 5
T3 sequence (Q8C3K6 1-665): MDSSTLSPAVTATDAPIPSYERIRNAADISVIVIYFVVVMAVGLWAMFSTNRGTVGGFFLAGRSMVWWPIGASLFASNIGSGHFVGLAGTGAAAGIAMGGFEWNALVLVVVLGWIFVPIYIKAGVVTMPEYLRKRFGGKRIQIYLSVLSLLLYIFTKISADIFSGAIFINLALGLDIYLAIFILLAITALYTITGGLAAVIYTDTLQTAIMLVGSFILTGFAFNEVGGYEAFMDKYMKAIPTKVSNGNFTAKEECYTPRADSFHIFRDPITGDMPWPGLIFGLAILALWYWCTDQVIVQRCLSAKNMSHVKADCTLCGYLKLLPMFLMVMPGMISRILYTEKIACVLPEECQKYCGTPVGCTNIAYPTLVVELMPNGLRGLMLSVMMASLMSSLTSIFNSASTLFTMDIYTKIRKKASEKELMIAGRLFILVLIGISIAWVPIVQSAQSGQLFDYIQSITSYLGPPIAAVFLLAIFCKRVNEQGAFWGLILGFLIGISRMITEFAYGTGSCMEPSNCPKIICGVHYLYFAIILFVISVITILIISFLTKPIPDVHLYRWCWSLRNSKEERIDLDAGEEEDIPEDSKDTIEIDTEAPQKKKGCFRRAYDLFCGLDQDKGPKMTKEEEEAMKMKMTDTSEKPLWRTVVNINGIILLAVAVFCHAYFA
Source text: as §1, §2

[4] = tested on: C57Bl/6 mice; assay: Glucose lowering effects in oral glucose tolerance test (OGTT); assay type: in vivo, mouse; conditions: for Glucose, 20 Minute / Glucose, 40 Minute / Glucose, 60 Minute / Glucose, 120 Minute / Glucose, 0 Minute / Baseline Adjusted AUC (glucose) / Glucose Cmax / Glucose Tmax: 10 mg/kg oral, mean ± SE; for Glucose, 20 Minute: 20 min after dextrose 3 g/kg; for Glucose, 40 Minute: 40 min after dextrose 3 g/kg; for Glucose, 60 Minute: 60 min after dextrose 3 g/kg; for Glucose, 120 Minute: 120 min after dextrose 3 g/kg; for Glucose, 0 Minute: baseline before dextrose 3 g/kg
Method: The test compound is formulated by adding a vehicle of 1% hydroxyethylcellulose, 0.25% Tween® 80 w/antifoam 0.05% to preweighed test compound to make a 1 mg/ml solution. The mixture is probe sonicated for approximately 1 minute. A stir bar is added, and the resulting suspension is stirred continuously throughout dosing.
Single housed C57Bl/6 mice are weighed and body weights used to determine study groups (n=5), within a working range of 26-30 g. After grouping, all mice are fasted overnight by removing access to food, late afternoon before test day. At the same time, two groups of mice are orally gavaged with 10 ml/kg test compound preparation or vehicle. Animals are dosed thirty seconds apart. […] The following morning, the remaining mice are weighed and orally gavaged using the same protocol as the previous day.
At five, eight and eighteen hours after each respective compound treatment is started, a baseline blood sample is taken for measuring glucose (from the first animal, via tail snip). The animal is then immediately given an oral dose of 50% dextrose (Hospira®) at 3 g/kg. Blood samples are taken for glucose, exactly thirty seconds apart, by tail vein so that blood is collected in each animal at 20, 40, 60 and 120 minutes after the dextrose dose.

In the case of Cc1cc(/C=C/CCN2CCCC3(CCN(C(=O)CNC(=O)NCC(C)C)CC3)C2)ccc1Cc1c(O[C@@H]2O[C@H](CO)[C@@H](O)[C@H](O)[C@H]2O)n[nH]c1C(C)C [Example 1, 1-(2-{2-[(3E)-4-(4-{[3-(beta-D-glucopyranosyloxy)-5-(propan-2-yl)-1H-pyrazol-4-yl]methyl}-3-methylphenyl)but-3-en-1-yl]-2,9-diazaspiro[5.5]undec-9-yl}-2-oxoethyl)-3-(2-methylpropyl)urea], the “Potency at SGLT1 relative to human SGLT2 (in words)” value ([1]; in vitro, human and mouse SGLT1 vs human SGLT2) is reported as “more potent at human and mouse SGLT1 than at human SGLT2”, the IC50 ([1]; sodium-dependent 14C-AMG uptake, CHO-K1 cells, n = 5) is reported as 17.3 ± 16.2 nM and the IC50 [2] is reported as 171 ± 26 nM. For the same molecule, the IC50 [3] was 7.3 ± 2.9 nM, the “Glucose, 20 Minute” value ([4]; OGTT @ 5 hr post dose) was 124.7 ± 7.66 mg/dL and the “Glucose, 40 Minute” value ([4]; OGTT @ 5 hr post dose) was 139.2 ± 7.69 mg/dL. For the same molecule, the “Glucose, 60 Minute” value ([4]; OGTT @ 5 hr post dose) was 133.2 ± 6.24 mg/dL, the “Glucose, 120 Minute” value ([4]; OGTT @ 5 hr post dose) was 108.7 ± 4.93 mg/dL and the “Glucose, 0 Minute” value ([4]; OGTT @ 5 hr post dose) was 75.9 ± 3.21 mg/dL. The “Baseline Adjusted AUC (glucose)” value ([4]; OGTT @ 5 hr post dose) was 2815 ± 194 mg/dL, the “Glucose Cmax” value ([4]; OGTT @ 5 hr post dose) was 140.2 ± 7.48 mg/dL and the “Glucose Tmax” value ([4]; OGTT @ 5 hr post dose) was 56 ± 16 min. For the same molecule, the “Glucose, 20 Minute” value ([4]; OGTT @ 8 hrs post dose) was 142.4 ± 7.4 mg/dL, the “Glucose, 40 Minute” value ([4]; OGTT @ 8 hrs post dose) was 168.1 ± 8.37 mg/dL and the “Glucose, 60 Minute” value ([4]; OGTT @ 8 hrs post dose) was 171.2 ± 10.1 mg/dL. The “Glucose, 120 Minute” value ([4]; OGTT @ 8 hrs post dose) was 113.6 ± 4.25 mg/dL, the “Glucose, 0 Minute” value ([4]; OGTT @ 8 hrs post dose) was 75.5 ± 4.42 mg/dL and the “Baseline Adjusted AUC (glucose)” value ([4]; OGTT @ 8 hrs post dose) was 4147 ± 456 mg/dL. The “Glucose Cmax” value ([4]; OGTT @ 8 hrs post dose) was 175.1 ± 9.3 mg/dL, the “Glucose Tmax” value ([4]; OGTT @ 8 hrs post dose) was 52 ± 4.9 min and the “Glucose, 20 Minute” value ([4]; OGTT @ 18 hrs post dose) was 196.0 ± 16.6 mg/dL. The “Glucose, 40 Minute” value ([4]; OGTT @ 18 hrs post dose) was 216.1 ± 15.0 mg/dL, the “Glucose, 60 Minute” value ([4]; OGTT @ 18 hrs post dose) was 188.7 ± 13.8 mg/dL and the “Glucose, 120 Minute” value ([4]; OGTT @ 18 hrs post dose) was 110.3 ± 5.74 mg/dL. For the same molecule, the “Glucose, 0 Minute” value ([4]; OGTT @ 18 hrs post dose) was 78.7 ± 8.81 mg/dL, the “Baseline Adjusted AUC (glucose)” value ([4]; OGTT @ 18 hrs post dose) was 6194 ± 406 mg/dL and the “Glucose Cmax” value ([4]; OGTT @ 18 hrs post dose) was 216.1 ± 15.0 mg/dL. For the same molecule, the “Glucose Tmax” value ([4]; OGTT @ 18 hrs post dose) was 44 ± 4.0 min, the “Average maximum concentration of plasma glucose (Cmax) (in words)” value ([4]; during all three OGTTs) was “decreases” and the “Average time for glucose to reach maximum concentration (Tmax) (in words)” value ([4]; during all three OGTTs) was “increasing”. For the same molecule, the “Baseline adjusted glucose AUC (in words)” value ([4]; during all three OGTTs) was “dose dependent decrease” and the “Glucose excursion after oral bolus of 50% dextrose (in words)” value ([4]; normal glycemic C57Bl/6 mouse, five, eight or eighteen hours after administration) was “decrease in the glucose excursion”.
